Data on two molecules can be found in article PMC7665192, “A natriuretic peptide from Arabidopsis thaliana (AtPNP-A) can modulate catalase 2 activity” (Scientific Reports, 2020).

Positions of bridges follow the written chain, without caps; N, C: chain ends. Residues, ends and D or L forms follow the SMILES beside them. *: point of attachment. Biotin = O=C1N[C@H]2[C@H](CS[C@H]2CCCCC(=O)*)N1

The test system of one assay is CAT2. Briefly: Zymogram of CAT isoforms from treated seedlings. In kind it is in vivo, Arabidopsis thaliana. Conditions: 1 nM peptide, sprayed 20 min before harvesting; mean ± SD, n = 3, Student's t-test P < 0.05. As for the experimental part: (§1) Enzymatic activity of CAT isozymes and total CAT activities of protein extracted from WT and atpnp-a or cat2-2 mutant lines, when indicated sprayed with 1 nM pAtPNP-A or pScr 20 min before harvesting, were determined zymographically and spectrophotometrically, as described in[56]. Relative quantification of intensity of bands corresponding to different CAT isoforms was performed with ImageJ version 1.48 (https://imagej.nih.gov/ij/). Enzymatic activity of the rCAT2 in the presence of absence of 100 nM rAtPNP-A, pAtPNP-A or pScr were determined with the use of Amplex Red catalase assay kit (Invitrogen) according to the manufacturer’s instructions.
(§2) Figure 3 AtPNP-A directly interacts with CAT2 to modulate its enzymatic activity in vitro. (a) Zymogram depicting changes in the enzymatic activity of CAT isoforms extracted from wild type (WT) or cat2-2 knockout mutant seedlings in response to 1 nM pAtPNP-A or pScr. Densitometric semi-quantification of bands corresponding to CAT2, normalized to the loading control (dark-coloured band on zymogram) for WT samples treated with 1 nM pAtPNP-A or pScr (mean ± SD, Student’s t-test, n = 3, P < 0.05). […] (b) Total CAT activity in protein extracted from WT seedlings assayed with Amplex Red catalase assay kit in the presence of 1 nM pAtPNP-A, rAtPNP-A, or pScr. […] (c) Enzymatic activity of rCAT2 in the presence of 100 nM pAtPNP-A, rAtPNP-A, or pScr.

For the next assay, the system named is rCAT2. Briefly: Enzymatic activity of rCAT2, Amplex Red catalase assay. In kind it is biochemical, Arabidopsis thaliana. Conditions: 100 nM, Amplex Red catalase assay kit; three independent experiments, P < 0.01. As for the experimental part:
as §1, §2

The next assay deals with leaf discs of WT plants. Briefly: Oxidative burst (ROS) in leaf discs. Conditions: leaf discs pre-treated with 100 nM rAtPNP-A for 30 min, then 1 μM flg22, luminol luminescence, 1 h, n = 11–12, P < 0.01. Set-up: species or system Arabidopsis thaliana. As for the experimental part:
Leaf discs (0.196 cm[2]) of 4-week-old WT plants were incubated overnight floating on 0.1 mL water in 96-well titer plate, with one disc per well. The following day the leaf discs were pre-treated with 100 nM rAtPNP-A or mock for 30 min. For ROS detection horseradish peroxidase and luminol (Sigma-Aldrich) were added to a final concentration of 10 μg mL^−1 and 100 μM, respectively. Luminescence was measured directly after addition of either 1 μM of flg22 or 100 nM rAtPNP-A in a MicroLumat LB96P plate reader (Berthold Technologies) for 1 h and is shown in relative light units.
Supplementary Figure S2. AtPNP-A participates in plant immunity.
Kinetics of ROS production after treatment of leaf discs with 1 μM flg22 with or without pre-treatment with 100 nM recombinant AtPNP-A (rAtPNP-A), or after treatment with rAtPNP-A only. Data are shown as mean ± SEM (two-way repeated measure ANOVA followed by Tukey’s multiple comparison test, n = 11 – 12, * P < 0.01). Total production of ROS during 60 min after treatment with rAtPNP-A, flg22, or flg22 and rAtPNP-A pre-treatment is shown as median ± SD (one-way ANOVA and Tukey-Kramer multiple comparison test, n = 11 – 12, P < 0.01) with statistically significant differences indicated by different letters.
(1 picture or pasted object on this page, not shown here)

The test system of assay [1] is CRF6, cytokinin response factor 6. Briefly: Yeast two-hybrid (Y2H) screen. In kind it is binding, A. thaliana. Conditions: bait AtPNP-A amino acids 26–130, prey At3g61630.1. On the procedure: (§3) The Y2H screen using AtPNP-A as bait was carried out by Dualsystems Biotech AG (Zurich, Switzerland). The bait construct for the screening was made by subcloning the cDNA fragment encoding exported portion of AtPNP-A (amino acids 26 to 130) (Fig. 1a) into the pLexA-DIR vector (Dualsystems Biotech AG). The bait construct was transformed into the strain NMY32 (MATa his3Δ200 trp1-901 leu2-3,112 (lexAop)8-ADE2 LYS2::(lexAop)4-HIS3 URA3::(lexAop)8-lacZ GAL4) using standard procedures. Correct expression of the bait was verified by western blotting of cell extracts using a mouse monoclonal antibody directed against the LexA domain (Dualsystems Biotech AG). The absence of self-activation was verified by co-transformation of the bait together with a control prey and selection on minimal medium lacking tryptophan, leucine, and histidine (selective medium). For the Y2H screen, the bait was co-transformed together with a normalized A. thaliana universal P02403 cDNA library (Dualsystems Biotech AG) into NMY32. 3.1 × 10^6 transformants were screened, yielding 96 transformants that grew on selective medium. […] Library plasmids were isolated from positive clones. The identity of positive interactants was determined by sequencing. DNA sequences translated in all three reading frames and searching against the SwissProt database using the BLASTX algorithm (https://blast.ncbi.nlm.nih.gov).

Assay [2] concerns ERP/AP2, ethylene response factor. Put plainly: Yeast two-hybrid (Y2H) screen. Format: binding, A. thaliana. Conditions: bait AtPNP-A amino acids 26–130, prey At5g07580.1. As for the experimental part: as §3
The subject of assay [3] is SHA1, shoot apical meristem arrest 1. Briefly: Yeast two-hybrid (Y2H) screen. In kind it is binding, A. thaliana. Conditions: bait AtPNP-A amino acids 26–130, prey At5g63780.1. On the procedure: as §3
For a further assay, the system named is Unknown protein. Put plainly: Yeast two-hybrid (Y2H) screen. In kind it is binding, A. thaliana. Conditions: bait AtPNP-A amino acids 26–130, prey At5g39570.1. As for the experimental part: as §3
For assay [4], the system named is Calcium-binding EF-hand family protein. Put plainly: Yeast two-hybrid (Y2H) screen. Details: species or system A. thaliana. Conditions: bait AtPNP-A amino acids 26–130, prey At2g41410.1. On the procedure: as §3
Assay [5] has as its system NAD(P)-binding Rossmann-fold superfamily protein. Put plainly: Yeast two-hybrid (Y2H) screen. Details: species or system A. thaliana. Conditions: bait AtPNP-A amino acids 26–130, prey At1g07440.1. On the procedure:
as §3

Assay [6] has as its system SPL8, squamosal promoter binding protein-like 8. Briefly: Yeast two-hybrid (Y2H) screen. Set-up: species or system A. thaliana. Conditions: bait AtPNP-A amino acids 26–130, prey At1g02065.1. On the procedure:
as §3

With `CC(C)C[C@@H]1NC(=O)[C@H](CC(N)=O)NC(=O)[C@H](CC(N)=O)NC(=O)[C@H](CCCCN)NC(=O)[C@H](C(C)C)NC(=O)CNC(=O)[C@H](C(C)C)NC(=O)[C@H](C(C)C)NC(=O)[C@H](CC(C)C)NC(=O)[C@H]([C@@H](C)O)NC(=O)[C@H](CCC(=O)O)NC(=O)[C@H](CCCNC(=N)N)NC(=O)[C@H](CCC(N)=O)NC(=O)[C@H]([C@@H](C)O)NC(=O)CNC(=O)[C@H](Cc2ccc(O)cc2)NC(=O)[C@@H](NC(=O)[C@H](C)NC(=O)[C@H](CO)NC(=O)[C@H](CCCNC(=N)N)NC(=O)[C@@H](NC(=O)[C@H](Cc2ccc(O)cc2)NC(=O)[C@@H]2CCCN2)[C@@H](C)O)CSSC[C@@H](C(=O)NCC(=O)N[C@@H](CCCNC(=N)N)C(=O)N[C@@H](CCCNC(=N)N)C(=O)N[C@@H](Cc2ccc(O)cc2)C(=O)N[C@@H](CCCNC(=N)N)C(=O)N[C@H](C(=O)N[C@@H](CCCNC(=N)N)C(=O)N[C@@H](CCCCNC(=O)CCCC[C@@H]2SC[C@@H]3NC(=O)N[C@@H]32)C(=O)O)C(C)C)NC(=O)[C@H](C)NC(=O)[C@H](CCCNC(=N)N)NC(=O)CNC(=O)[C@H](CC(N)=O)NC(=O)[C@H](CCC(N)=O)NC(=O)[C@H](Cc2c[nH]c3ccccc23)NC1=O` [pAtPNP-A] (H-PYTRSACYGTQRETLVVGVKNNLWQNGRACGRRYRVRK(Biotin)-OH; disulfide 7-30; N-terminus and C-terminus assumed), the “CAT2 activity in WT plants (zymogram)” value with CAT2 is listed as “increased CAT2 activity in WT plants compared to the mutants”. In addition, in the assay on rCAT2, the “In vitro enzymatic activity of rCAT2” value is “significantly enhanced”.
Turning to “AtPNP-A: An A. thaliana PNP, termed AtPNP-A (At2g18660; Q9ZV52)”, the “Effect on flg22-induced oxidative burst” value in the assay on leaf discs of WT plants was “enhanced flg22-induced oxidative burst”; with leaf discs of WT plants (listed as AtPNP), “enhances responses to flg22”; in the assay with leaf discs of WT plants (listed as PNP), “enhances oxidative burst”. In addition, the Strength of binding entry is given as “Weak” in [1]; “Strong” in assay [2]; “Strong” in [3]; “Weak” in the assay on Unknown protein; “Weak” in assay [4]; “Moderate” in [5]. The Strength of binding result in assay [6] is “Weak”.
